Test results published in patent publication US20090053138A1, “Stabilized Aptamers to Platelet Derived Growth Factor and their Use as Oncology Therapeutics” (priority 2002, published 2009).
{PEG40k} = 40 kDa polyethylene glycol; [invdT] = inverted (3'-3') thymidine; [HEG] = hexaethylene glycol spacer

How the values were obtained:
[1] = molecular target: T1, rat PDGF-BB (Rattus norvegicus, UniProt Q05028); assay: Cell migration assay, 3T3 cells; type: cell-based; conditions: 100 nM aptamer, 5 nM PDGF BB, 24 well format
T1 construct: purchased PeproTech, Rocky Hill, N.J
T1 sequence (Q05028 66-174 limits assumed): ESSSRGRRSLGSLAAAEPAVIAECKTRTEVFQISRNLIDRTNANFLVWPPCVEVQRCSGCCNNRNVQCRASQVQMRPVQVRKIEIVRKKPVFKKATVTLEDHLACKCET
Procedure: (§1) PDGF is a strong mitogen as well as a chemoattractant. […] In the cell migration assay 80,000 cells 3T3 rat fibroblasts (ATCC, Manassas, Va.) or RPE (retinal pigmented epithelial) cells (ATCC, Manassas, Va.) were plated per well into a 24 well plate with 8 micron filters (BD Biosciences, Discovery Labware, Bedford, Mass.). 0.5 ml DMEM/0.2% FCS was added to the top chamber and 0.8 ml DMEM/0.2% FCS was added to the bottom chamber. The system was equilibrated by incubating for 4 hours at 37 degrees celsius. Human PDGF-BB (PeproTech, Rocky Hill, N.J.) (for RPE cells) or rat PDGF-BB (PeproTech) (for 3T3 cells) was added to the bottom chamber (0 ng/ml-100 ng/ml final concentration). The system was incubated 4 hours to 12 hours. Cells were scraped off on the top of filter with a Q-tip. The cells that migrated to the bottom of the filter were fixed with a mixture of cold 50% Methanol/50% Acetone for 3 minutes.
(§2) Following incubation filters were washed with 1×PBS and stained with Giemsa Stain (Matheson Coleman and Bell) for 1-2 hours and migration was visualized by taking pictures on a Zeiss Axiovert 200M microscope.

[2] = molecular target: PDGF BB (Homo sapiens, UniProt P01127); assay: Cell migration assay, RPE cells; type: cell-based; parameters: purchased PeproTech, Rocky Hill, N.J
Chain of PDGF BB (P01127 82-190 limits assumed): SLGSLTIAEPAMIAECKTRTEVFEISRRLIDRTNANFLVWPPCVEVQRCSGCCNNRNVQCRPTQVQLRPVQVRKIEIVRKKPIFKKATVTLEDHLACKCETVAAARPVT
Procedure: as §1, with “The system was incubated 4 hours to 12 hours.” left out
as §2
The 96 well assay starts by bringing plates and reagents to room temperature. 150 ul of DMEM/0.2% FBS was added with or without chemoattractant to the wells of the feeder tray.
Following incubation, the migration chamber plate was removed and the non-migratory cells were discarded. The number of migratory cells was quantitated according to manufacturer's recommended instructions. In brief, media from the top side was removed by flipping out the remaining cell suspension, and was placed onto a new feeder tray that contains 150 ul of pre-warmed Cell Detachment Solution. This mixture was incubated for 30 minutes at 37 degrees celsius. CyQuant GR Dye 1:75 was diluted with 4× Lysis Buffer and 50 ul of the Lysis Buffer/Dye Solution was added to each well containing 150 ul of the solution containing migratory cells.

[3] = 100 nM aptamer, 5 nM PDGF BB, 24 well format

Substance | migration of 3T3 cells [1] | migration of RPE cells [2, 3] | migration of RPE cells ([2]; 96 well format)
5′-(SEQ ID NO.4)-HEG-(SEQ ID NO:5)-HEG-(SEQ ID NO:6)-3 (chain 1 CAGCGUACG; chain 2 CGTACCGATUCA; chain 3 TGAAGCUG; HEG spacers joining pieces; synthetic aptamer; modified_base (4)..(4) cytidine is 2′-fluoro; modified_base (5)..(5) gm; modified_base (6)..(6) uridine is 2′-fluoro; modified_base (8)..(8) cytidine is 2′-fluoro; modified_base (9)..(9) gm; modified_base (7)..(7) gm; modified_base (10)..(10) uridine is 2′-fluoro; modified_base (11)..(11) cytidine is 2′-fluoro; modified_base (12)..(12) adenosine is 2′-O-Methyl; modified_base (6)..(6) cytidine is 2′-fluoro; modified_base (7)..(7) uridine is 2′-fluoro; modified_base (8)..(8) gm) [ARC128, reference compound] | no activity | no activity | did not affect migration
5′-[40 K PEG]-(SEQ ID NO:1)-HEG-(SEQ ID NO:2)-HEG-(SEQ ID NO:3)-3′-dT-3′ (chain 1 CAGGCUACG; chain 2 CGTAGAGCAUCA; chain 3 TGATCCUG; piece 1: 2'-fluoro at 6, 8, 2'-O-methyl at 9, 5' {PEG40k}, 3' [HEG], other sugars and backbone not given here; piece 2: 2'-O-methyl at 5, 7, 12, 2'-fluoro at 10, 11, 3' [HEG], other sugars and backbone not given here; piece 3: 2'-fluoro at 5, 6, 7, 2'-O-methyl at 8, 3' [invdT], other sugars and backbone not given here) [ARC127] | inhibits the effects of 5 nM PDGF-BB | inhibits the effects of 5 nM PDGF-BB | reduced migration levels to background
